One series addresses T1, Tyrosinase (Agaricus bisporus, UniProt O42713).
T1 sequence (O42713 whole entry): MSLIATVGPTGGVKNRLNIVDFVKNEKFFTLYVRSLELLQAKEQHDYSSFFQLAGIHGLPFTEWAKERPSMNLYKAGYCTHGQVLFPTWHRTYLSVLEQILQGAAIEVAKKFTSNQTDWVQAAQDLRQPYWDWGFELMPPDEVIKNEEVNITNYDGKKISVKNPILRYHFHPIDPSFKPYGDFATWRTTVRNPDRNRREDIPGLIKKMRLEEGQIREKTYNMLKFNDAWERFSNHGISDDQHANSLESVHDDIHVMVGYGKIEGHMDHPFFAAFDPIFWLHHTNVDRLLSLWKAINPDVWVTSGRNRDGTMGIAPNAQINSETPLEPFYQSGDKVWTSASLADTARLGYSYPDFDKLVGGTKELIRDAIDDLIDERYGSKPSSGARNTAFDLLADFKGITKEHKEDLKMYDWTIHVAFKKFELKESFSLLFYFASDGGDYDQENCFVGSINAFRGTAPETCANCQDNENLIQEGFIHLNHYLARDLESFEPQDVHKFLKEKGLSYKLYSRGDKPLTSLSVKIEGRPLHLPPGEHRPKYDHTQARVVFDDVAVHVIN
Put plainly: Inhibition of mushroom tyrosinase using L-dopa as substrate assessed as reduction in dopachrome production after 20 mins by spectrophotometry.

Another series relates to B16. Put plainly: Cytotoxicity against mouse B16 cells up to 150 uM by MTT assay relative to control. It counts as cell-based. (In general: Tetrazolium dyes change colour on reduction, which living cells bring about.)
Series [1] in a line: Antioxidant activity assessed as ABTS radical scavenging activity at 80 uM after 10 mins relative to control. It counts as functional.
Series [2] can be described thus: Hemolytic activity against human erythrocytes assessed as amount of hemoglobin released from lysed cells up to 150 uM relative to control. It counts as ADME, cell-based, Erythrocyte. The following applies: read-out: Activity.
For another series, the system named is HaCaT. Put plainly: Cytotoxicity against human HaCaT cells up to 150 uM by MTT assay relative to control. It counts as cell-based.
A short description of series [3]: Antioxidant activity assessed as DPPH free radical scavenging activity at 80 uM after 30 mins relative to control. Type of series: functional. (Loss of DPPH colour is used to gauge radical scavenging.)
A short description of series [4]: Reducing power of the compound assessed as reducing Fe3+ power at 80 uM using K3Fe(CN)6 in pH 6.6 phosphate buffer relative to control.

12 molecules from ChEMBL document CHEMBL4325834, “De Novo Molecular Design of a Novel Octapeptide That Inhibits In Vivo Melanogenesis and Has Great Transdermal Ability” (J Med Chem, 2018) can be followed below.

Where a SMILES comes first, the peptide text is derived from it.

Broadly, the IC50 is the concentration that inhibits the measured activity by half. With H-TRAFRCVS-OH, on Tyrosinase, the IC50 turned out to be 220 µM. The Activity with B16 worked out at 10%; in series [1] it was 56%; in the series with HaCaT, 11%; in series [3], 80%; in series [4], 0.25. Further, the hemolysis in series [2] stood at 1%.

Turning to `C[C@H](NC(=O)[C@H](CO)NC(=O)[C@H](CS)NC(=O)[C@H](CO)NC(=O)[C@@H](NC(=O)[C@H](CCCNC(=N)N)NC(=O)[C@@H](N)Cc1ccccc1)[C@@H](C)O)C(=O)N[C@@H](CS)C(=O)O` (H-FRTSCSAC-OH), at Tyrosinase, the half-maximal inhibitory concentration (IC50) is 78 µM. Further, the Activity in the series with B16 came out at 8%; in series [1], 62%; in the series on HaCaT, 7%; in series [3], 73%; in series [4] it was 0.23. Moreover, the hemolysis in series [2] is 2%.

As to `CC[C@H](C)[C@H](NC(=O)[C@H](CS)NC(=O)[C@H](C)NC(=O)[C@@H](NC(=O)[C@H](CCCNC(=N)N)NC(=O)[C@H](C)NC(=O)[C@@H](NC(=O)[C@H](CC(N)=O)NC(=O)[C@@H](NC(=O)[C@H](CCSC)NC(=O)[C@H](Cc1c[nH]c2ccccc12)NC(=O)[C@H](Cc1cnc[nH]1)NC(=O)[C@@H](NC(=O)[C@@H](N)CS)C(C)C)[C@@H](C)O)[C@@H](C)O)[C@@H](C)O)C(=O)N[C@@H](C)C(=O)N1CCC[C@H]1C(=O)O` (H-CVHWMTNTARTACIAP-OH), at Tyrosinase, the half-inhibitory concentration (IC50) was found to be 176 µM. In addition, the results for the Activity in series [1], in series [3] and in series [4] were 82%, 21% and 0.34, respectively.

`CC[C@H](C)[C@H](NC(=O)[C@H](CS)NC(=O)[C@H](CCCNC(=N)N)NC(=O)[C@H](CO)NC(=O)[C@@H](N)[C@@H](C)O)C(=O)N[C@@H](Cc1ccccc1)C(=O)N[C@@H](Cc1ccc(O)cc1)C(=O)N[C@@H](CCCNC(=N)N)C(=O)N[C@@H](CCCNC(=N)N)C(=O)N[C@@H](CS)C(=O)N[C@H](C(=O)N[C@@H](CS)C(=O)N[C@@H](CO)C(=O)O)C(C)C` (H-TSRCIFYRRCVCS-OH): the 50% inhibitory concentration (IC50) at Tyrosinase is 128 µM. Besides, the Activity in the series on B16 stood at 27%; in series [1], 61%; in the series on HaCaT it was 29%; in series [3], 60%; in series [4], 0.24. Further, the hemolysis in series [2] was determined as 21%.

As to `CC[C@H](C)[C@H](NC(=O)[C@H](CS)NC(=O)[C@@H](NC(=O)[C@@H](NC(=O)[C@H](CCCNC(=N)N)NC(=O)[C@H](C)NC(=O)[C@@H](NC(=O)[C@H](CC(N)=O)NC(=O)[C@@H](NC(=O)[C@H](CCCNC(=N)N)NC(=O)[C@H](Cc1ccccc1)NC(=O)[C@H](CCCNC(=N)N)NC(=O)[C@@H](NC(=O)[C@@H](N)CS)C(C)C)[C@@H](C)O)[C@@H](C)O)[C@@H](C)O)C(C)C)C(=O)N[C@@H](C)C(=O)N1CCC[C@H]1C(=O)O` (H-CVRFRTNTARTVCIAP-OH), the IC50 at Tyrosinase was 166 µM. For the same molecule, the Activity in the series on B16 was 13%; in series [1], 36%; with HaCaT, 15%; in series [3], 43%; in series [4], 0.18. For the same molecule, the hemolysis in series [2] was determined as 5%.

As for `CC(C)[C@H](NC(=O)[C@H](CCCNC(=N)N)NC(=O)[C@H](CS)NC(=O)[C@H](CO)NC(=O)[C@H](CCCNC(=N)N)NC(=O)[C@H](Cc1ccccc1)NC(=O)[C@@H](N)Cc1ccccc1)C(=O)N[C@@H](CS)C(=O)O` (H-FFRSCRVC-OH), on Tyrosinase, the IC50 is 90 µM. Also, the Activity in the series with B16 came out at 5%; in series [1], 66%; in the series with HaCaT, 5%; in series [3], 95%; in series [4], 0.19. Further, the hemolysis in series [2] is 2%.

For the molecule `C[C@@H](O)[C@H](NC(=O)[C@H](CO)NC(=O)[C@H](Cc1ccccc1)NC(=O)[C@@H](N)Cc1ccccc1)C(=O)N[C@@H](CO)C(=O)N[C@@H](CS)C(=O)N[C@@H](CCCNC(=N)N)C(=O)N[C@@H](CO)C(=O)NCC(=O)N[C@@H](CS)C(=O)O` (H-FFSTSCRSGC-OH), the IC50 on Tyrosinase turned out to be 187 µM. The Activity in series [1] was 80%; in series [3] it was 45%; in series [4], 0.21.

As for `CC(C)[C@H](N)C(=O)N[C@H](C(=O)N[C@@H](CCCCN)C(=O)N[C@@H](CS)C(=O)N[C@@H](CO)C(=O)N[C@@H](Cc1ccccc1)C(=O)N[C@@H](CCCNC(=N)N)C(=O)N1CCC[C@H]1C(=O)NCC(=O)N[C@@H](CO)C(=O)N1CCC[C@H]1C(=O)N[C@@H](C)C(=O)N1CCC[C@H]1C(=O)N[C@@H](CCCNC(=N)N)C(=O)N[C@@H](CS)C(=O)N[C@@H](CCCCN)C(=O)O)C(C)C` (H-VVKCSFRPGSPAPRCK-OH), the IC50 on Tyrosinase worked out at 199 µM. For the same molecule, the Activity worked out at 13% in the series with B16; 25% in series [1]; 10% in the series on HaCaT; 56% in series [3]; 0.18 in series [4]. Further, the hemolysis in series [2] amounted to 5%.

For the molecule `CC[C@H](C)[C@H](NC(=O)[C@H](CS)NC(=O)[C@H](CCCNC(=N)N)NC(=O)[C@H](CO)NC(=O)[C@@H](N)[C@@H](C)O)C(=O)N[C@@H](Cc1ccccc1)C(=O)N[C@@H](Cc1ccc(O)cc1)C(=O)N[C@@H](CCCNC(=N)N)C(=O)N[C@@H](CCCNC(=N)N)C(=O)N[C@@H](CCCCN)C(=O)N[C@@H](CCCCN)C(=O)N[C@@H](CS)C(=O)N[C@@H](CO)C(=O)O` (H-TSRCIFYRRKKCS-OH), on Tyrosinase, the half-maximal inhibitory concentration (IC50) worked out at 153 µM. In addition, the values for the Activity in series [1], in series [3] and in series [4] were 85%, 55% and 0.21, respectively.

As to `CC(C)[C@H](NC(=O)[C@H](CCCNC(=N)N)NC(=O)[C@H](Cc1ccccc1)NC(=O)[C@H](CS)NC(=O)[C@H](CCCNC(=N)N)NC(=O)[C@H](CO)NC(=O)[C@@H](N)[C@@H](C)O)C(=O)N[C@@H](CS)C(=O)O` (H-TSRCFRVC-OH), the 50% inhibitory concentration (IC50) on Tyrosinase came to 106 µM. Further, the Activity in the series with B16 amounted to 11%; in series [1], 50%; in the series on HaCaT it was 9%; in series [3], 99%; in series [4] it was 0.24. Also, in series [2], the hemolysis is 1%.

With `CC[C@H](C)[C@H](NC(=O)[C@H](C)NC(=O)[C@@H]1CCCN1C(=O)[C@@H](NC(=O)[C@@H](N)Cc1ccccc1)C(C)C)C(=O)N[C@@H](CC(C)C)C(=O)N[C@@H](CS)C(=O)N[C@@H](CO)C(=O)N[C@H](C(=O)N[C@@H](CC(C)C)C(=O)N[C@@H](CCCCN)C(=O)N[C@H](C(=O)N[C@@H](CS)C(=O)O)[C@@H](C)O)[C@@H](C)CC` (H-FVPAILCSILKTC-OH), the 50% inhibitory concentration (IC50) on Tyrosinase was 147 µM. In addition, the Activity with B16 amounted to 12%; in series [1], 48%; in the series on HaCaT it was 11%; in series [3], 74%; in series [4], 0.23. The hemolysis in series [2] came out at 4%.

`CC(C)[C@H](NC(=O)[C@H](CO)NC(=O)[C@H](CCCNC(=N)N)NC(=O)[C@H](CS)NC(=O)[C@H](CO)NC(=O)[C@@H](NC(=O)[C@H](CCCNC(=N)N)NC(=O)[C@H](Cc1ccccc1)NC(=O)[C@@H](N)Cc1ccccc1)[C@@H](C)O)C(=O)N[C@@H](CS)C(=O)O` (H-FFRTSCRSVC-OH): the half-inhibitory concentration (IC50) on Tyrosinase was 127 µM. Further, the Activity turned out to be 9% with B16; 58% in series [1]; 13% in the series on HaCaT; 90% in series [3]; 0.28 in series [4]. Moreover, the hemolysis in series [2] turned out to be 7%.
